# Patent publication US10519140B2, “Indolin-2-one derivatives” (Hoffmann-La Roche Inc., priority 2015, dated 2019)
# Target: T1, mouse ENT-1 transporter (Mus musculus, UniProt Q9JIM1)
# T1 construct: expressed in transfected cells
# T1 sequence (Q9JIM1 1-460): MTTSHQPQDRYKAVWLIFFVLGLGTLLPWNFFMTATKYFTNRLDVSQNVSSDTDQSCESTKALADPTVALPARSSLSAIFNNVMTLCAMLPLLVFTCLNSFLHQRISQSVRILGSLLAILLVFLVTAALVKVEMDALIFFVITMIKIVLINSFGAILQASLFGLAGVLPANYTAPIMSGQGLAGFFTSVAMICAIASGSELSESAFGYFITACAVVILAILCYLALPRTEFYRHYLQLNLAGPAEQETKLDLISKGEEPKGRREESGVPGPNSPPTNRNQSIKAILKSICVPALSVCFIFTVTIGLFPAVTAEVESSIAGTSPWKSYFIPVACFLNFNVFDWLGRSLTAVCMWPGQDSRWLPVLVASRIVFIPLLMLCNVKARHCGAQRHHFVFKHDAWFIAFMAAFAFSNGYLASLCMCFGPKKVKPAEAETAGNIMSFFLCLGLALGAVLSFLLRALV
# Experiment: Adenosine transport activity (ENT1, [3H]-adenosine uptake inhibition)
# Assay type: cell-based
# Conditions: stable cells expressing mouse ENT-1; [2,8-3H]-adenosine 6 nM, 20 min
# Experimental: To measure adenosine transport activity of ENT-1 mammalian cells, stable cells expressing the mouse ENT-1 transporter were plated on day 1 in 96-well culture plates at the density of 60,000 cells/well, in complete DMEM/F12 medium supplemented with glutamax, 10% FBS and 10 μg/ml puromycin. On day 2, the medium was aspirated and the cells were washed twice with uptake buffer (10 mM Hepes-Tris, pH 7.4 containing 150 mM NaCl, 1 mM CaCl2, 2.5 mM KCl, 2.5 mM MgSO4, 10 mM D-glucose) (UB). For inhibition experiments, cells were then incubated at RT with various concentrations of compounds with 1% DMSO final. Non-specific uptake was defined in the presence of 10 μM S-(4-Nitrobenzyl)-6-thioinosine (NBTI, Sigma Cat #N2255). A solution containing [2,8-^3H]-adenosine 6 nM (40 Ci/mmol, American Radiolabeled chemicals Inc, Cat #ART 0287A) was then immediately added to the wells. The plates were then incubated for 20 min with gentle shaking and the reaction was stopped by aspiration of the mixture and washing (three times) with ice-cold UB. The cells were lysed by the addition of scintillation liquid, shaken 3 hours and the radioactivity in the cells was estimated using a microplates scintillation counter (TopCount NXT, Packard).
row,SMILES,IC50 [nM]
1,"Cc1ncc(-c2ccc3c(c2)N(c2ccc4c(c2)N(C)C(=O)CO4)C(=O)C3(C)C)cn1 [Example 47, 6-(3,3-Dimethyl-6-(2-methylpyrimidin-5-yl)-2-oxoindolin-1-yl)-4-methyl-2H-benzo[b][1,4]oxazin-3(4H)-one]",14.2
2,"Cc1ncc(-c2ccc3c(c2)N(c2cnc4[nH]c(=O)[nH]c4n2)C(=O)C3(C)C)cn1 [Example 36, 5-(3,3-Dimethyl-6-(2-methylpyrimidin-5-yl)-2-oxoindolin-1-yl)-1H-imidazo[4,5-b]pyrazin-2(3H)-one]",375
3,"Cc1ncc(-c2ccc3c(c2)N(c2ccc(C)c(N4CCOCC4)n2)C(=O)C3(C)C)cn1 [Example 31, 3,3-Dimethyl-1-(5-methyl-6-morpholinopyridin-2-yl)-6-(2-methylpyrimidin-5-yl)indolin-2-one]",40.1
4,"Cc1ncc(-c2ccc3c(c2)N(c2cnc(N4[C@@H]5COC[C@H]4C5)cn2)C(=O)C3(C)C)cn1 [Example 51, 1-(5-((1R,5S)-3-Oxa-6-azabicyclo[3.1.1]heptan-6-yl)pyrazin-2-yl)-3,3-dimethyl-6-(2-methylpyrimidin-5-yl)indolin-2-one]",227
5,"COCCNc1nc(N2C(=O)C(C)(C)c3ccc(-c4cnc(C)nc4)cc32)cnc1C [Example 19, 1-(6-((2-Methoxyethyl)amino)-5-methylpyrazin-2-yl)-3,3-dimethyl-6-(2-methylpyrimidin-5-yl)indolin-2-one]",110
6,"Cc1ncc(-c2ccc3c(c2)N(c2ccc4c(c2)N(C)C(=O)C4(C)C)C(=O)C3(C)C)cn1 [Example 41, 1′,3,3,3′,3′-Pentamethyl-6-(2-methylpyrimidin-5-yl)-[1,6′-biindoline]-2,2′-dione]",114
7,"Cc1ncc(-c2ccc3c(c2)N(c2cncc(N4[C@@H]5COC[C@H]4C5)n2)C(=O)C3(C)C)cn1 [Example 13, 1-(6-((1R,5S)-3-Oxa-6-azabicyclo[3.1.1]heptan-6-yl)pyrazin-2-yl)-3,3-dimethyl-6-(2-methylpyrimidin-5-yl)indolin-2-one]",137
8,"Cc1ncc(-c2ccc3c(c2)N(c2cncc(N4CCC(F)(F)CC4)n2)C(=O)C3(C)C)cn1 [Example 6, 1-(6-(4,4-Difluoropiperidin-1-yl)pyrazin-2-yl)-3,3-dimethyl-6-(2-methylpyrimidin-5-yl)indolin-2-one]",32.4
9,"Cc1ncc(-c2ccc3c(c2)N(c2cc4c(nn2)N(C2CC2)C(=O)C4(C)C)C(=O)C3(C)C)cn1 [Example 53, 7-Cyclopropyl-3-(3,3-dimethyl-6-(2-methylpyrimidin-5-yl)-2-oxoindolin-1-yl)-5,5-dimethyl-5H-pyrrolo[2,3-c]pyridazin-6(7H)-one]",993
10,"Cc1ncc(-c2ccc3c(c2)N(c2cnc(N4CCOCC4)cn2)C(=O)C3(C)C)cn1 [Example 49, 3,3-Dimethyl-6-(2-methylpyrimidin-5-yl)-1-(5-morpholinopyrazin-2-yl)indolin-2-one]",415
11,"Cc1ncc(-c2ccc3c(c2)N(c2cncc(NC4COC4)n2)C(=O)C3(C)C)cn1 [Example 17, 3,3-Dimethyl-6-(2-methylpyrimidin-5-yl)-1-(6-(oxetan-3-ylamino)pyrazin-2-yl)indolin-2-one]",244
12,"Cc1ncc(-c2ccc3c(c2)N(c2ccc4ccn(C)c4c2)C(=O)C3(C)C)cn1 [Example 62, 3,3-Dimethyl-1-(1-methyl-1H-indol-6-yl)-6-(2-methylpyrimidin-5-yl)indolin-2-one]",428
13,"Cc1ncc(-c2ccc3c(c2)N(c2ccc(C)c(N4CCOC4=O)n2)C(=O)C3(C)C)cn1 [Example 32, 3-(6-(3,3-Dimethyl-6-(2-methylpyrimidin-5-yl)-2-oxoindolin-1-yl)-3-methylpyridin-2-yl)oxazolidin-2-one]",32.4
14,"Cc1ncc(-c2ccc3c(c2)N(c2ccnc(N4CCOCC4)n2)C(=O)C3(C)C)cn1 [Example 23, 3,3-Dimethyl-6-(2-methylpyrimidin-5-yl)-1-(2-morpholinopyrimidin-4-yl)indolin-2-one]",52.2
15,"Cc1ncc(-c2ccc3c(c2)N(c2cncc(NC4CC4)n2)C(=O)C3(C)C)cn1 [Example 7, 1-(6-(Cyclopropylamino)pyrazin-2-yl)-3,3-dimethyl-6-(2-methylpyrimidin-5-yl)indolin-2-one]",39.6
16,"Cc1ncc(-c2ccc3c(c2)N(c2ccc4c(c2F)N(C)C(=O)C4(C)C)C(=O)C3(C)C)cn1 [Example 46, 7′-Fluoro-1′,3,3,3′,3′-pentamethyl-6-(2-methylpyrimidin-5-yl)-[1,6′-biindoline]-2,2′-dione]",244
17,"Cc1ncc(-c2ccc3c(c2)N(c2ccc4c(c2)NC(=O)C4(C)C)C(=O)C3(C)C)cn1 [Example 44, 3,3,3′,3′-Tetramethyl-6-(2-methylpyrimidin-5-yl)-[1,6′-biindoline]-2,2′-dione]",128
18,"Cc1ncc(-c2ccc3c(c2)N(c2cnc4c(c2)NC(=O)CO4)C(=O)C3(C)C)cn1 [Example 38, 7-(3,3-Dimethyl-6-(2-methylpyrimidin-5-yl)-2-oxoindolin-1-yl)-1H-pyrido[2,3-b][1,4]oxazin-2(3H)-one]",61.4
19,"Cc1ncc(-c2ccc3c(c2)N(c2cccc(N4CCOC4=O)n2)C(=O)C3(C)C)cn1 [Example 28, 3-(6-(3,3-Dimethyl-6-(2-methylpyrimidin-5-yl)-2-oxoindolin-1-yl)pyridin-2-yl)oxazolidin-2-one]",5
20,"Cc1ncc(-c2ccc3c(c2)N(c2cnc4c(n2)[nH]c(=O)n4C)C(=O)C3(C)C)cn1 [Example 35, 5-(3,3-Dimethyl-6-(2-methylpyrimidin-5-yl)-2-oxoindolin-1-yl)-1-methyl-1H-imidazo[4,5-b]pyrazin-2(3H)-one]",496
21,"Cc1ncc(-c2ccc3c(c2)N(c2ccc4nnn(C)c4c2)C(=O)C3(C)C)cn1 [Example 48, 3,3-Dimethyl-1-(1-methyl-1H-benzo[d][1,2,3]triazol-6-yl)-6-(2-methylpyrimidin-5-yl)indolin-2-one]",184
22,"Cc1ncc(-c2ccc3c(c2)N(c2ccc4c(C)nn(C)c4n2)C(=O)C3(C)C)cn1 [Example 61, 1-(1,3-Dimethyl-1H-pyrazolo[3,4-b]pyridin-6-yl)-3,3-dimethyl-6-(2-methylpyrimidin-5-yl)indolin-2-one]",202
23,"Cc1ncc(-c2ccc3c(c2)N(c2ccc(C)c(N)n2)C(=O)C3(C)C)cn1 [Example 29, 1-(6-Amino-5-methylpyridin-2-yl)-3,3-dimethyl-6-(2-methylpyrimidin-5-yl)indolin-2-one]",126

# Tested on: L-687,414-induced hyperlocomotion
# Experiment: L-687,414-induced hyperlocomotion
# Assay type: in vivo
# Conditions: Mus musculus; mice; dose 30 mg/kg ip, 15 min before 50 mg/kg s.c. L-687,414
# Description: The authors described that hyperlocomotion induced by L-687,414 was inhibited by a series of known antipsychotic drugs. […] These findings predict antipsychotic activity for the present compounds, making them useful for the treatment of positive (psychosis) and negative symptoms of schizophrenia, substance abuse, alcohol and drug addiction, obsessive-compulsive disorders, cognitive impairment, bipolar disorders, mood disorders, major depression, resistant depression, anxiety disorders, Alzheimer's disease, autism, Parkinson's disease, chronic pain, borderline personality disorder, sleep disturbances, chronic fatigue syndrome, stiffness, antiinflammatory effects in arthritis and balance problems, and treatment of epilepsy and neurodevelopmental disorders with co-morbid epilepsy.
# The described compounds of formula I reduce L-687,414-induced hyperlocomotion. This was assessed by using a computerized Digiscan 16 Animal Activity Monitoring System (Omnitech Electronics, Columbus, Ohio) to quantify locomotor activity. Animals were kept under a 12 h light/dark cycle and experiments were performed during the light period. Each activity monitoring chamber consisted of a Plexiglas box (41×41×28 cm; W×L×H) with sawdust bedding on the floor surrounded by invisible horizontal and vertical infrared sensor beams. The test boxes were divided by a Plexiglas cross providing each mouse with 20×20 cm of moving space. Cages were connected to a Digiscan Analyzer linked to a computer that constantly collected the beam status information. Records of photocell beam interruptions for individual animals were taken every 5 min over the duration of the experimental session and the sum of the first 6 periods was used as the final parameter. At least 8 mice were used in each treatment group. Compounds were administered i.p. 15 min before a s.c. injection of 50 mg/kg of L-687,414. Mice were then transferred from their home cage to the recording chambers for a 15-min habituation phase allowing free exploration of the new environment. Horizontal activity was then recorded for a 30-min time period. The % inhibition of L-687,414-induced hyperlocomotion was calculated according to the equation: ((Veh+L-687,414 horizontal activity−drug+L-687,414 horizontal activity)/Veh+L−687,414 horizontal activity)×100
# ID50 values, defined as doses of each compound producing 50% inhibition of L-687,414-induced hyperlocomotion, were calculated by linear regression analysis of a dose-response data using an Excel-based computer-fitting program.
# As data was not presupposed to be normally distributed, groups treated with test compounds were statistically compared with the control (vehicle-treated) group using one-tailed Mann Whitney U tests. In statistics, the Mann-Whitney Utest (also called the Mann-Whitney-Wilcoxon (MWW) or Wilcoxon rank-sum test) is a non-parametric statistical hypothesis test for assessing whether one of two samples of independent observations tends to have larger values than the other. It is one of the most well-known non-parametric significance tests. […] P values given in table 1 are one-tailed since only decreases in locomotion were expected and tested for (Mann, H. B., Whitney, D. R. (1947), “On a Test of Whether one of Two Random Variables is Stochastically Larger than the Other”, Annals of Mathematical Statistics, 18 (1), 50-60).
row,SMILES,inhibition in vivo at 30 mg/kg [%]
1,"Cc1ncc(-c2ccc3c(c2)N(c2ccc4c(c2)N(C)C(=O)CO4)C(=O)C3(C)C)cn1 [Example 47, 6-(3,3-Dimethyl-6-(2-methylpyrimidin-5-yl)-2-oxoindolin-1-yl)-4-methyl-2H-benzo[b][1,4]oxazin-3(4H)-one]",93.8
